Here are results for 6 molecules from patent US8343490B2, “Monoclonal antibody SC104 and derivative thereof specifically binding to a sialyltetraosyl carbohydrate as a potential anti-tumor therapeutic agent” (Cephalon Australia Pty Ltd, priority 2004, dated 2013).

Like-named read-outs stand apart in the source and are kept apart here.

Experiment [1] concerns C170 cells. As to the kind of experiment: In vitro inhibition of cell growth in combination with cytotoxic drugs, MTS. Format: cell-based. The note with it: 5 days, FIG. 25. How it is done:
1×10^3 colorectal C170 cells were aliquoted into individual wells of a flat bottomed 96-well plate and left to adhere overnight at 37° C. The following day the cells were treated with cisplatin, mitomycin C, oxaliplatin and tamoxifen at final concentrations of 10, 3, 1, 0.3, 0.1 and 0 μM. Against each concentration of drug the following concentrations of SC104 were titrated: 10, 3, 1, 0.3 and 0 μg/ml. As a negative control 791T/36 at concentrations 100, 30, 10, 3 and 0 μg/ml, was titrated against each concentration of drug used. Duplicate wells were used. Cells were left for 5 days at 37° C. prior to the addition of MTS reagent to each well and optical density reading at 490 nm.

In experiment [2] the test system is C170 xenografts. It counts as in vivo. The protocol: Prevention model. The colorectal tumour cell line, C170 was maintained in serial passage in nude mice. For therapy the mice were sacrificed and the tumours excised. The tumour was finely minced and […] pieces were implanted, under anaesthetic, subcutaneously into 30 male mice which had been randomly allocated to 4 experimental groups.
Mice were explanted with 3 mm^3 pieces of C170 xenografts. Groups of mice were treated with 5-FU/leucovorin (12.5 mg/Kg) by intravenous infusion on days 1, 3, 5, 7 and 28. On the same days mice were also injected intraperitonealy with 0.2 mg of SC104 mab. Control mice received either SC104 alone or control mouse IgG antibody with 5-FU/leucovorin. Tumour size was measured by callipers and tumour cross sectional area calculated on days 7, 9, 12, 14 and 16. Animals were weighed to assess the toxicity of treatment. At the termination of the experiment tumours were weighed to assess anti-tumour efficacy.

For experiment [3], the system named is C170 xenografts. It counts as in vivo. Particulars: day 6.
Experiment [4] concerns C170 xenografts. Put plainly: C170 xenograft therapeutic model. It counts as in vivo, nude mice. Particulars: administered therapeutically, after C170 xenograft implantation; FIG. 27. How it is done:
Therapeutic model. The colorectal tumour cell line, C170 was maintained in serial passage in nude mice. For therapy the mice were sacrificed and the tumours excised. The tumour was finely minced and […] pieces were implanted, under anaesthetic, subcutaneously into 30 male mice which had been randomly allocated to 4 experimental groups.
Mice were explanted with 3 mm^3 pieces of C170 xenografts. […] On the same days mice were also injected intraperitonealy with 0.2 mg of SC104 mab. Control mice received either SC104 alone or control mouse IgG antibody with 5FU/leucovorin. Tumour size was measured by callipers and tumour cross sectional area calculated on days 12, 16, 19 and 23.

On to `CO[C@@]12[C@H](COC(N)=O)C3=C(C(=O)C(C)=C(N)C3=O)N1C[C@@H]1N[C@@H]12` [mitomycin C, Mitomycin C], for which the “additive killing in combination with SC104” value (“additive killing … with SC104” for short) in experiment [1] was “additive killing”.

As for `N.N.[Cl][Pt][Cl]` [cisplatin], the “additive killing … with SC104” value in experiment [1] is given as “additive killing”.

With `O=C1[O][Pt]2([NH][C@@H]3CCCC[C@H]3[NH]2)[O]C1=O` [oxaliplatin], in experiment [1], the “additive killing … with SC104” value was “No additive effect”.

For 5-FU/leucovorin [reference compound], the “inhibition of tumour growth of freshly explanted tumours” value in experiment [2] (SC104 200 μg/dose ip, 5-FU/leucovorin at maximum tolerated dose, FIG. 26a) is 50%.

Take `O=c1[nH]cc(F)c(=O)[nH]1` [5-FU, 5-Fluorouracil, reference compound]: the “inhibition of tumour growth” value is reported as 62% in experiment [3]; 40% in experiment [2] (day 9); 45% in experiment [2] (day 12); 58% in experiment [2] (day 14); “neither 5FU nor SC104 alone significantly inhibited growth” in experiment [4]. Besides, the “additive killing … with SC104” value in experiment [1] is given as “additive killing”. Besides, the survival of mice result in experiment [2] (Log Rank, FIG. 26b) is “significant improvement of survival”.

For the molecule `CC/C(=C(\c1ccccc1)c1ccc(OCCN(C)C)cc1)c1ccccc1` [tamoxifen], the “additive killing … with SC104” value in experiment [1] was “additive killing”.
